This data set is described as follows: Thermal stability test of polyvinyl chloride sheet in Geer oven at 185° C. (Example 7 composition). Here is the method: A heat stabilizer (acid-capturing agent) shown in Table 3 was mixed with the above components other than the heat stabilizer in the above amounts, and the mixture was uniformly mixed. Then, it was kneaded with an open roll for 3 minutes at 180° C., to prepare a sheet having a thickness of about 1 mm. The sheet was placed in a Geer oven set at 185° C., and it was estimated for a thermal stability. […] Concerning properties required for the heat stabilizer, the heat stabilizer was required to be nonpoisonous and a low price, to have good dispersibility, to be almost free from coloration, and to give a long period of time before blackening.
In Example 7, the calcium hydroxide of the present invention as a heat stabilizer was replaced with a calcium hydroxide obtained by surface-treating a commercially available calcium hydroxide used in Comparative Example 1 (5-1), lead stearate (5-2), and A type zeolite (5-3). These cases were estimated.

For the sequence A type zeolite [5-3], the “Thermal stability (period of time taken until the sheet was blackened)” value worked out at 40 min.

For the origin of these results see patent US6592834B1, “Calcium hydroxide, a process for the production thereof and use thereof” (Kabushiki Kaisha Kaisui Kagaku Kenkyujo, priority 1999, dated 2003).
